“Also recorded” adds a separate entry of the source.
Test system: HL-1 cardiomyocytes
Test: In vitro hypoxia assay of HL-1 cardiomyocytes, live/dead
Type: cell-based
Protocol: To examine potential functional roles of these candidates, particularly on cellular apoptosis, the study next used an in vitro hypoxia assay of HL-1 CMs, in which cells were exposed to low oxygen (1%02) for 6 hours prior to treatment with recombinant forms of these proteins.
HL-1 cardiomyocytes (Sigma, cat. SCC065) were maintained in growth media consisting of 10% FBS in Claycomb Media (Sigma, cat. 51800C) supplemented with 10 mM norepinephrine (Sigma, cat. A0937) and […] L-glutamine (Gibco, cat. 25030081). Primary cardiac fibroblasts were isolated from Col1a1GFP/+ mice 2 months of age. Mice were injected with heparin prior to sacrifice and the heart collected. The tissue was then cut into 1-2 mm pieces and digested with Liberase Blendzyme TH and TM (Roche, cat. LIBTM-RO) in Hank's Balanced Salt Solution (HBSS) (Gibco, cat. 1417507) supplemented with DNAse I and polaxamer (10 mg/ml, Sigma, cat. 16758) in 37° C. for 1 h. […]
Fluorescent images were acquired with Leica fluorescence inverted microscope DMI6000B equipped with an EL6000 light source. […] Image quantification was performed using Imager s “threshold” and “analyze particles” functions. Assessment of live/dead was determined as the number of DAPI+ cells/HPF. EdU and pHH3 quantification were recorded as the number of EdU+ or pHH3+ nuclei over the total number of DAPI.

Substance: thymosin β4: Thymosin family protein Tmsb4x, recombinant form; human reference NP_066932 in Table 1
- number of DAPI+ (dead) cells per field (1% O2 for 6 hours prior to treatment with recombinant protein): reduced; also recorded: protective role
- cellular viability / toxicity (high doses (500 nM)): cellular toxicity

Source: patent US20230285512A1, “COMPOSITIONS AND METHODS FOR TREATING MYOCARDIAL INFARCTION AND ISCHEMIA” (priority 2022, published 2023)
